Where two headings read alike, the source gives them in different places.
Columns and labels:
[1] = cytotoxicity to mouse L929 cells; format: cell-based; conditions: mouse, l929 cells, read-out: Suppression
Protocol: (§1) Cytotoxicity to mouse L929 cells was assayed as follows:
(§2) L929 cells were suspended to the concentration of 1.5×10^5 cells/ml in the F12 culture medium supplemented with 10% FCS. One hundred μl of the suspension was added to each well of 96-well microculture plates, and cultured at 37° C. in an atmosphere of 5% carbon dioxide for 24 hours, to which 100 μl of the test solution was added and cultured for further 48 hours. After the culture, 100 μl of the supernatant was removed and the absorbancy at 550 nm was measured in the same way as the colormetry using MTT in Experimental Example 1. The percent suppression was calculated by the following formula used as the index of cytotoxicity. [formula]

[2] = tested on: mouse L929 cells; assay: cytotoxicity to mouse L929 cells; format: cell-based; conditions: 550 nm
Protocol: as §1, §2

[3] = tested on: HL60; assay: in vitro; format: cell-based, human
Protocol: (§3) Cytotoxicity to human tumor cell lines was examined as follows:
(§4) Cells of human cell lines, K562, MOLT4, U937, HL60, KATOIII, KB, PC-6, PC-14 and CCRF-CEM were separately suspended to the concentration of 2×10^5 cells/ml in the RPMI1640 culture medium supplemented with 20% FCS. Fifty μl of this suspension was added to each well of 96-well microculture plates to which 50 μl of the test solution had been added. After culturing at 37° C. in an atmosphere of 5% carbon dioxide for 72 hours, the absorbancy at 550 nm was measured in the same way as the colorimetry using MTT in Experimental Example 1, and the percent suppression was calculated in the same manner as in Experimental Example 14, which was used as the index of cytotoxicity.

[4] = tested on: PC-14; assay: in vitro; format: cell-based, human
Protocol: as §3, §4

[5] = tested on: U937; assay: in vitro; format: cell-based, human
Protocol: as §3, §4

[6] = tested on: CCRF-CEM; assay: in vitro; format: cell-based, human
Protocol: as §3, §4

[7] = tested on: KB; assay: in vitro; format: cell-based, human
Protocol: as §3, §4

[8] = tested on: K562; assay: in vitro; format: cell-based, human
Protocol: as §3, §4

[9] = in vitro; format: cell-based, human; conditions: human, read-out: Suppression
Protocol: as §3, §4

[10] = tested on: MOLT4; assay: cytotoxicity to tumor cell line MOLT4; format: cell-based, human
Protocol: as §3, §4

[11] = cytotoxicity to tumor cell line MOLT4; format: cell-based, human; conditions: human, molt4 cells, read-out: Suppression
Protocol: as §3, §4

[12] = tested on: mouse allogenic mixed lymphocyte reaction (BALB/c responder, C57BL/6 stimulator spleen cells); assay: mouse allogenic mixed lymphocyte reaction (MLR), blastogenesis by 3H-thymidine uptake; format: cell-based; conditions: for inhibition at 0.001 µg/mL / inhibition at 0.01 µg/mL / inhibition at 0.1 µg/mL: Mus musculus, Lymphocyte, read-out: Suppression
Protocol: The immunosuppressive activity of the compounds (I) and their lactones was assayed by using mouse allogenic mixed lymphocyte reaction (hereinafter sometimes abbreviated as MLR). Mouse allogenic MLR was carried out by mixed culture of the BALB/c mouse (H-2^d) spleen cells as the responder cells and the mitomycin C-treated C57BL/6 (H-2^b) spleen cells as the stimulator cells in equal amounts.
The responder cells were prepared as follows: The spleen was resected from 5- to 6-week-old male BALB/c mice, and single cell suspension of spleen cells was prepared by using the RPMI1640 culture medium (containing 60 μg/ml of kanamycin sulfate, 2 mM of L-glutamine, 10 mM of N-2-hydroxyethylpiperazine-N'-2-ethanesulfonate (HEPES) and 0.1% sodium hydrogencarbonate) to which heat-inactivated fetal calf serum (hereinaftersometimes abbreviated as FCS) had been added to 5%. After hemolytic treatment, the cell suspension was adjusted to a concentration of 10^7 cells/ml by using the RPMI1640 culture medium supplemented with 10^-4 M 2-mercaptoethanol and 20% FCS, and was used as the responder cell suspension.
The stimulator cells were prepared as follows:
The spleen was resected from 5- to 6-week-old male C57BL/6 mice, and single cell suspension of spleen cells was prepared by using the RPMI1640 culture medium. After hemolytic treatment, the cells were treated with 40 μg/ml of mitomycin C at 37° C. for 60 minutes. After washing three times, the concentration of the cell suspension was adjusted to 10^7 cells/ ml by using the RPMI1640 culture medium supplemented with 10^-4 M 2-mercaptoethanol and 20% FCS, and was used as the stimulator cell suspension.
Fifty μl of the responder cell suspension, 50μl of the stimulator cell suspension prepared by the above method, and 100 μl of the test substance were placed in 96-well microculture plates, and were cultured at 37° C. in an atmosphere of 5% carbon dioxide for 4 days.
The blastogenesis of lymphocytes was assayed by a method of ^3 H-thymidine uptake as an index. That is, after termination of the culture, 0.5 μCi/well of ^3 H-thymidine was added and cultured for 4 hours. Cells were harvested by a cell-harvester, and the radioactivity incorporated into the cells was determined by a liquid scintillation counter to obtain the index of blastogenesis of lymphocytes in the mouse allogenic MLR. The suppression of the mouse allogenic MLR was evaluated by calculating the percent suppression by the following formula. [formula]
The test substance was dissolved in methanol or suspended in a mixture of methanol and acetic acid, and then diluted with the RPMI1640 culture medium.

## CCCCCCC(O)CCCCCC/C=C/CC(O)C(O)C(N)(CO)C(=O)O (stereo not drawn) [Example 6]
[1]; 0.1 μg/ml
  cytotoxicity at 48 h: 0%
[1]; 1 μg/ml
  cytotoxicity at 48 h: 0%
[1]; 10 μg/ml
  cytotoxicity at 48 h: 0%
[2]; 0.1 μg/ml
  Absorbancy: 0.732
[2]; 1 μg/ml
  Absorbancy: 0.714
[2]; 10 μg/ml
  Absorbancy: 0.733
[3]; 0.1 μg/ml
  Absorbancy: 0.619
[3]; 1.0 μg/ml
  Absorbancy: 0.589
[3]; 10.0 μg/ml
  Absorbancy: 0.627
[4]; 0.1 μg/ml
  Absorbancy: 0.372
[4]; 1.0 μg/ml
  Absorbancy: 0.405
[4]; 10.0 μg/ml
  Absorbancy: 0.351
[5]; 0.1 μg/ml
  Absorbancy: 0.439
[5]; 1.0 μg/ml
  Absorbancy: 0.436
[5]; 10.0 μg/ml
  Absorbancy: 0.435
[6]; 0.1 μg/ml
  Absorbancy: 0.463
[6]; 1.0 μg/ml
  Absorbancy: 0.457
[6]; 10.0 μg/ml
  Absorbancy: 0.475
[7]; 0.1 μg/ml
  Absorbancy: 0.771
[7]; 1.0 μg/ml
  Absorbancy: 0.728
[7]; 10.0 μg/ml
  Absorbancy: 0.707
[8]; 0.1 μg/ml
  Absorbancy: 0.823
[8]; 1.0 μg/ml
  Absorbancy: 0.798
[8]; 10.0 μg/ml
  Absorbancy: 0.811
[9]; ccrf-cem cells, 0.1 μg/ml
  cytotoxicity at 72 h: 8%
[9]; ccrf-cem cells, 1.0 μg/ml
  cytotoxicity at 72 h: 9.1%
[9]; ccrf-cem cells, 10.0 μg/ml
  cytotoxicity at 72 h: 5.6%
[9]; hl60 cells, 0.1 μg/ml
  cytotoxicity at 72 h: 16%
[9]; hl60 cells, 1.0 μg/ml
  cytotoxicity at 72 h: 21%
[9]; hl60 cells, 10.0 μg/ml
  cytotoxicity at 72 h: 17%
[9]; k562 cells, 0.1 μg/ml
  cytotoxicity at 72 h: 1.6%
[9]; k562 cells, 1.0 μg/ml
  cytotoxicity at 72 h: 4.5%
[9]; k562 cells, 10.0 μg/ml
  cytotoxicity at 72 h: 3%
[9]; kb cells, 0.1 μg/ml
  cytotoxicity at 72 h: 0%
[9]; kb cells, 1.0 μg/ml
  cytotoxicity at 72 h: 0.3%
[9]; kb cells, 10.0 μg/ml
  cytotoxicity at 72 h: 3.2%
[9]; pc-14 cells, 0.1 μg/ml
  cytotoxicity at 72 h: 21.5%
[9]; pc-14 cells, 1.0 μg/ml
  cytotoxicity at 72 h: 14.6%
[9]; pc-14 cells, 10.0 μg/ml
  cytotoxicity at 72 h: 25.9%
[9]; u937 cells, 0.1 μg/ml
  cytotoxicity at 72 h: 14%
[9]; u937 cells, 1.0 μg/ml
  cytotoxicity at 72 h: 9.9%
[9]; u937 cells, 10.0 μg/ml
  cytotoxicity at 72 h: 10.1%
[10]; 0.1 μg/ml
  Absorbancy: 0.615
[10]; 1.0 μg/ml
  Absorbancy: 0.599
[10]; 10.0 μg/ml
  Absorbancy: 0.567
[11]; 0.1 μg/ml
  cytotoxicity at 72 h: 0.8%
[11]; 1.0 μg/ml
  cytotoxicity at 72 h: 3.4%
[11]; 10.0 μg/ml
  cytotoxicity at 72 h: 8.5%
[12]; 0.001 μg/ml
  3H-thymidine uptake: 16237 cpm
  inhibition at 0.001 µg/mL: 52.3%
[12]; 0.01 μg/ml
  3H-thymidine uptake: 9276 cpm
  inhibition at 0.01 µg/mL: 85.4%
[12]; 0.1 μg/ml
  3H-thymidine uptake: 3017 cpm
  inhibition at 0.1 µg/mL: 100%

## CCCCCCC(=O)CCCCCCCCCC1OC(=O)C(N)(CO)C1O (stereo not drawn) [Example 7]
[1]; 0.1 μg/ml
  cytotoxicity at 48 h: 0%
[1]; 1 μg/ml
  cytotoxicity at 48 h: 0%
[1]; 10 μg/ml
  cytotoxicity at 48 h: 0%
[2]; 0.1 μg/ml
  Absorbancy: 0.799
[2]; 1 μg/ml
  Absorbancy: 0.811
[2]; 10 μg/ml
  Absorbancy: 0.696
[3]; 0.1 μg/ml
  Absorbancy: 0.432
[3]; 1.0 μg/ml
  Absorbancy: 0.427
[3]; 10.0 μg/ml
  Absorbancy: 0.428
[4]; 0.1 μg/ml
  Absorbancy: 0.446
[4]; 1.0 μg/ml
  Absorbancy: 0.424
[4]; 10.0 μg/ml
  Absorbancy: 0.315
[5]; 0.1 μg/ml
  Absorbancy: 0.588
[5]; 1.0 μg/ml
  Absorbancy: 0.593
[5]; 10.0 μg/ml
  Absorbancy: 0.551
[6]; 0.1 μg/ml
  Absorbancy: 0.681
[6]; 1.0 μg/ml
  Absorbancy: 0.653
[6]; 10.0 μg/ml
  Absorbancy: 0.587
[7]; 0.1 μg/ml
  Absorbancy: 0.726
[7]; 1.0 μg/ml
  Absorbancy: 0.695
[7]; 10.0 μg/ml
  Absorbancy: 0.493
[8]; 0.1 μg/ml
  Absorbancy: 0.387
[8]; 1.0 μg/ml
  Absorbancy: 0.332
[8]; 10.0 μg/ml
  Absorbancy: 0.302
[9]; ccrf-cem cells, 0.1 μg/ml
  cytotoxicity at 72 h: 1.6%
[9]; ccrf-cem cells, 1.0 μg/ml
  cytotoxicity at 72 h: 5.6%
[9]; ccrf-cem cells, 10.0 μg/ml
  cytotoxicity at 72 h: 15.2%
[9]; hl60 cells, 0.1 μg/ml
  cytotoxicity at 72 h: 17.2%
[9]; hl60 cells, 1.0 μg/ml
  cytotoxicity at 72 h: 18.2%
[9]; hl60 cells, 10.0 μg/ml
  cytotoxicity at 72 h: 18%
[9]; k562 cells, 0.1 μg/ml
  cytotoxicity at 72 h: 0%
[9]; k562 cells, 1.0 μg/ml
  cytotoxicity at 72 h: 13.8%
[9]; k562 cells, 10.0 μg/ml
  cytotoxicity at 72 h: 21.6%
[9]; kb cells, 0.1 μg/ml
  cytotoxicity at 72 h: 0.5%
[9]; kb cells, 1.0 μg/ml
  cytotoxicity at 72 h: 4.8%
[9]; kb cells, 10.0 μg/ml
  cytotoxicity at 72 h: 32.5%
[9]; pc-14 cells, 0.1 μg/ml
  cytotoxicity at 72 h: 5.9%
[9]; pc-14 cells, 1.0 μg/ml
  cytotoxicity at 72 h: 10.5%
[9]; pc-14 cells, 10.0 μg/ml
  cytotoxicity at 72 h: 33.5%
[9]; u937 cells, 0.1 μg/ml
  cytotoxicity at 72 h: 0%
[9]; u937 cells, 1.0 μg/ml
  cytotoxicity at 72 h: 0%
[9]; u937 cells, 10.0 μg/ml
  cytotoxicity at 72 h: 5.5%
[10]; 0.1 μg/ml
  Absorbancy: 0.107
[10]; 1.0 μg/ml
  Absorbancy: 0.123
[10]; 10.0 μg/ml
  Absorbancy: 0.100
[11]; 0.1 μg/ml
  cytotoxicity at 72 h: 26.2%
[11]; 1.0 μg/ml
  cytotoxicity at 72 h: 15.2%
[11]; 10.0 μg/ml
  cytotoxicity at 72 h: 31%
[12]; 0.001 μg/ml
  3H-thymidine uptake: 24446 cpm
  inhibition at 0.001 µg/mL: 13.4%
[12]; 0.01 μg/ml
  3H-thymidine uptake: 34378 cpm
  inhibition at 0.01 µg/mL: 0%
[12]; 0.1 μg/ml
  3H-thymidine uptake: 3546 cpm
  inhibition at 0.1 µg/mL: 100%

Reference: US5219884A, “Immunosuppressant” (Taito Co., Ltd., priority 1990, dated 1993)
